Holding throughout (test): NCI anticancer screen, dose series, 48 h
In test [1] the test system is HCC-2998 colon.
The test system of test [2] is HCT-116 colon.
The subject of test [3] is HS 578T breast.
Test [4] has as its system MDA-N.
Test [5] relates to OVCAR-3 ovarian.
Test [6] has as its system SF-268 CNS.
In test [7] the test system is SK-MEL-2 melanoma.
In test [8] the test system is SK-MEL-28 melanoma.
For test [9], the system named is SNB-75 CNS.
The subject of test [10] is UACC-257 melanoma.
Test [11] concerns UACC-62 melanoma.

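Results reflect a 48-hour exposure of cells in 96-well plates to compound at five concentrations. At the TGI there is no net growth.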

For the compound `O=S(=O)(O)c1ccc(N=Nc2ccc(N=Nc3c(O)ccc4ccccc34)cc2)cc1`, the TGI in test [1], in test [2], in test [3], in test [4], in test [5] and in test [6] was above 100 µM each time. Moreover, the TGI in test [7], in [8], in test [9], in test [10] and in test [11] was above 100 µM each time.

On to `CCOC(=O)c1cc(C2(O)CCN(CC(C)CC)C2=O)c(-c2cc(C)no2)[nH]1` (stereo not given), for which the TGI in [1], in test [2], in test [3], in test [4], in test [5] and in test [6] was above 100 µM throughout. Besides, the TGI in test [7], in [8], in [9], in test [10] and in [11] was above 100 µM throughout.

`Cc1ccc(NC(=S)NNC(=O)c2cc(-c3ccccc3)nc3ccccc23)cc1`: the TGI was determined as 24.3 µM in test [1]; 21.3 µM in test [2]; 38.2 µM in test [3]; 12.7 µM in [4]; 21.7 µM in test [5]; 34.8 µM in test [6]. Moreover, the TGI in test [7] came out at 24 µM; in [8], 20.1 µM; in test [9], 42.3 µM; in test [10] it was 33 µM; in [11], 30.6 µM.

In the case of `COC(=O)C1(OC(=O)Sc2ccccc2)CCN(C)CC1`, the TGI is above 73 µM in test [1]; 53.6 µM in test [2]; 70.9 µM in [3]; 49.4 µM in [4]; above 45.3 µM in [5]; 62 µM in [6]. Further, the TGI was above 100 µM in test [7]; above 100 µM in test [8]; 40.1 µM in [9]; 56.6 µM in test [10]; above 64.7 µM in test [11].

As to `O=C(c1cc(Cl)cc(Cl)c1)N1CCN(C(=O)c2cc(Cl)cc(Cl)c2)C1=S`, the TGI was 31 µM in test [1]; 30 µM in test [2]; above 100 µM in [3]; 34.5 µM in test [4]; 26.9 µM in test [5]; 37.6 µM in [6]. In addition, the TGI in [7] is 34.1 µM; in [8], above 54.5 µM; in test [9], 27.8 µM; in test [10] it was 28.8 µM; in test [11] it was 23.5 µM.

`Cc1ccc(-c2cc(-c3ccc(Cl)cc3)nc(/N=C3\C(=O)N(CN4CCOCC4)c4ccc(Cl)cc43)n2)cc1`: the TGI in test [1] was 36.5 µM; in test [2] it was 40.9 µM; in [3] it was above 100 µM; in test [4], above 100 µM; in test [5], above 100 µM; in test [6], 88.1 µM. Moreover, the TGI in test [7] was 39.9 µM; in [8], above 100 µM; in test [9] it was 97.1 µM; in test [10], above 100 µM; in test [11], 93.2 µM.

In the case of `CN(CCN(C)C(=S)NN)C(=S)NN`, the TGI in [1], in test [2], in [3], in [4], in test [5] and in test [6] was above 100 µM in each case. The TGI in test [7], in [8], in test [9], in test [10] and in test [11] was above 100 µM each time.

`Cn1c(N)c2c3c(sc2nc1=O)CCCC3`: the TGI in [1], in [2], in [3], in test [4], in [5] and in test [6] was above 75 µM throughout. Moreover, the TGI in test [7], in test [8], in test [9], in [10] and in [11] was above 75 µM in each case.

On to `Cc1cc(C)nc(NS(=O)(=O)c2ccc(NNC(=O)c3cccc4c(=O)c5ccccc5[nH]c34)cc2)n1`, for which the TGI in test [1], in [2], in [3], in [4], in test [5] and in [6] was above 100 µM in each case. The TGI in [7] is 76.5 µM; in test [8], 82.8 µM; in [9] it was 77.7 µM; in test [10] it was above 100 µM; in [11], above 100 µM.

For the compound `CC1(C)OC(=C(C#N)C#N)C(C#N)=C1/C=C/c1ccncc1`, the TGI worked out at 19.5 µM in [1]; 3.46 µM in test [2]; 17.9 µM in [3]; 7.27 µM in [4]; 3.59 µM in [5]; 6.5 µM in test [6]. The TGI in test [7] worked out at 6.44 µM; in [8] it was 5.43 µM; in test [9], 8.68 µM; in test [10], 8.27 µM; in [11], 3.93 µM.

With `Cc1ccsc1/C=N/Nc1ccc2ccccc2n1`, the TGI in test [1], in test [2], in test [3], in test [4], in test [5] and in test [6] was above 100 µM each time. Moreover, the TGI in [7] is above 100 µM; in test [8], above 100 µM; in test [9] it was above 100 µM; in test [10] it was 53.2 µM; in test [11] it was above 100 µM.

As to `CC(/C=N\NC(=S)N1CCCCC1)=N/NC(=S)N1CCCCC1`, the TGI was determined as 11.7 µM in test [1]; 6.19 µM in test [2]; 14.7 µM in test [3]; 12.1 µM in test [4]; 5.12 µM in test [5]; 14.6 µM in test [6]. Also, the TGI in [7] was found to be 6.36 µM; in test [8] it was 18.1 µM; in test [9], 8.08 µM; in test [10] it was 15.4 µM; in [11], 5.94 µM.

For the compound `CN(C)/C=N/n1c2ccccc2c2ccccc21`, the TGI in [1], in test [2], in test [3], in test [4], in test [5] and in test [6] was above 100 µM in each case. The TGI in [7], in test [8], in [9], in [10] and in test [11] was above 100 µM each time.

As to `CC12CC(C#N)(C#N)C(C#N)(CO1)C(=N)O2` (stereo not given), the TGI in [1], in test [2], in [3], in [4], in test [5] and in [6] was above 100 µM throughout. Moreover, the TGI in test [7], in test [8], in test [9], in test [10] and in test [11] was above 100 µM in each case.

In the case of `CN1C(=O)C(CC=O)(C(C)(C)C)c2ccccc21` (stereo not given), the TGI in test [1], in test [2], in test [3], in test [4], in test [5] and in test [6] was above 100 µM in each case. Further, the TGI in test [7], in [8], in test [9], in test [10] and in test [11] was above 100 µM throughout.

As for `CCCCn1c(C)c2c(c1C)C(=O)N(CC(O)CN1CCc3ccccc3C1)C2=O` (stereo not given), the TGI in [1], in test [2], in [3], in test [4], in test [5] and in [6] was above 100 µM each time. Moreover, the TGI in test [7] is 14.8 µM; in test [8], above 100 µM; in test [9] it was above 100 µM; in [10] it was above 100 µM; in test [11], above 100 µM.

With `COc1ccc(OC)c(C2Cc3cnc4nc(N)nc(N)c4c3C2)c1` (stereo not given), the TGI in test [1] is 41.9 µM; in test [2], 55.1 µM; in test [3] it was above 100 µM; in test [4] it was 83.7 µM; in test [5], 41.6 µM; in test [6], above 100 µM. The TGI was 42.2 µM in test [7]; above 100 µM in [8]; 47.5 µM in test [9]; 40.1 µM in test [10]; 51.5 µM in test [11].

Take `CC1C[C@]2(C)C(=O)Nc3ccccc3[C@@H]2Nc2ccccc21` (stereo not given in full): the TGI in [1] is 88.5 µM; in test [2], 33.6 µM; in [3], 72.9 µM; in [4] it was above 100 µM; in [5], 35.9 µM; in test [6], above 100 µM. The TGI is 45 µM in test [7]; 95.5 µM in [8]; above 100 µM in test [9]; 39.5 µM in test [10]; 45.3 µM in test [11].

As for `COc1cc(C2SCC(=O)N2c2ccc(Cl)c(Cl)c2)cc(OC)c1OC` (stereo not given), the TGI in test [1] is above 100 µM; in test [2], above 100 µM; in test [3] it was above 100 µM; in [4], 45.9 µM; in test [5], above 100 µM; in [6], above 100 µM. Further, the TGI is above 100 µM in [7]; above 100 µM in test [8]; above 100 µM in test [9]; above 100 µM in test [10]; above 21.9 µM in test [11].

With `C[C@@H]1C[C@](O)([C@@H](C)Cl)C(=O)O[C@@H]2CCN3CC=C(COC(=O)[C@]1(C)O)[C@H]23`, the TGI in test [1], in test [2], in [3], in [4], in test [5] and in [6] was above 100 µM throughout. The TGI in [7], in [8], in [9], in test [10] and in test [11] was above 100 µM in each case.

Consider `C[C@H]1C2Cc3cc(N)ccc3[C@@]1(C)CCN2CCc1ccccc1`, for which the TGI is 21.7 µM in test [1]; above 100 µM in test [2]; above 100 µM in [3]; above 100 µM in test [4]; 92.6 µM in [5]; above 100 µM in test [6]. Moreover, the TGI in test [7], in [8], in test [9], in [10] and in [11] was above 100 µM in each case.

`CCc1nc2ccc(N=NN(C)C)cc2[nH]1`: the TGI in [1], in test [2], in test [3], in [4], in [5] and in [6] was above 100 µM in each case. The TGI in test [7], in test [8], in test [9], in test [10] and in test [11] was above 100 µM each time.

Consider `O=[N+]([O-])c1ccc(S(=O)(=O)N=Ic2ccccc2)cc1`, for which the TGI in test [1], in test [2], in [3], in test [4], in test [5] and in test [6] was above 100 µM each time. For the same compound, the TGI in test [7], in test [8], in test [9], in [10] and in test [11] was above 100 µM in each case.

On to `CC(NNC(=O)CC(=O)N(C(=O)c1ccccc1)c1ccc(Cl)cc1)c1cc2ccccc2oc1=O` (stereo not given), for which the TGI in test [1], in [2], in [3], in test [4], in test [5] and in [6] was above 10 µM each time. For the same compound, the TGI in [7], in test [8], in test [9], in test [10] and in test [11] was above 10 µM each time.

As to `S=c1[nH]n2c(COc3cccc(OCc4nnc5sc(=S)[nH]n45)c3)nnc2s1`, the TGI in [1], in test [2], in test [3], in [4], in [5] and in test [6] was above 100 µM each time. In addition, the TGI in test [7], in test [8], in [9], in test [10] and in test [11] was above 100 µM each time.

For the origin of these results see PubChem BioAssay (NCI).
